Where a chain is given by its changes, count along the chain named. Each block holds one compound with its values, some of them ahead of it.
Legend:
[1] = molecular target: T1, Aldo-keto reductase family 1 member C3 (Homo sapiens, UniProt P42330); assay: Inhibition of human AKR1C3 using S-tetralol as substrate in presence of NADP by fluorescence method
T1 sequence (P42330 whole entry): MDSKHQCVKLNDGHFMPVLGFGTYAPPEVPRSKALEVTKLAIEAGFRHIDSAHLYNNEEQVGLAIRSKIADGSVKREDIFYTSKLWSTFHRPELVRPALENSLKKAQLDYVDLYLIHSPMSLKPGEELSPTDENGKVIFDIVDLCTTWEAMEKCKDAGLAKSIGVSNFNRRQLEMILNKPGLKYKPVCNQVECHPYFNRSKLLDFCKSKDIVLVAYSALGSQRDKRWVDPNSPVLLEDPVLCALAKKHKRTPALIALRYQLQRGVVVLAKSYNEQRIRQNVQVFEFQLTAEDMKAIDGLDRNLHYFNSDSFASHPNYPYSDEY

[2] = molecular target: T2, Aldo-keto reductase family 1 member C4 (Homo sapiens, UniProt P17516); assay: Inhibition of human AKR1C4 using S-tetralol as substrate in presence of NADP by fluorescence method
T2 sequence (P17516 whole entry): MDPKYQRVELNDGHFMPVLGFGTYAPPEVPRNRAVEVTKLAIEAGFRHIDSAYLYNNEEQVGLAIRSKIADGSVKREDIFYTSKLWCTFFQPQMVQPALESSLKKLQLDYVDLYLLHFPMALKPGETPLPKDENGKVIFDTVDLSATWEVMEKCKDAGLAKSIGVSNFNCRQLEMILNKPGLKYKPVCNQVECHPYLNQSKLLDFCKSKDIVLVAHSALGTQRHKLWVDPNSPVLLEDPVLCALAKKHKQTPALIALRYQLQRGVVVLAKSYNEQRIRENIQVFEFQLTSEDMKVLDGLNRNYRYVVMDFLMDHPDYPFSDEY

[3] = molecular target: T3, Aldo-keto reductase family 1 member C2 (Homo sapiens, UniProt P52895); assay: Inhibition of human AKR1C2 using S-tetralol as substrate in presence of NADP by fluorescence method
T3 sequence (P52895 whole entry): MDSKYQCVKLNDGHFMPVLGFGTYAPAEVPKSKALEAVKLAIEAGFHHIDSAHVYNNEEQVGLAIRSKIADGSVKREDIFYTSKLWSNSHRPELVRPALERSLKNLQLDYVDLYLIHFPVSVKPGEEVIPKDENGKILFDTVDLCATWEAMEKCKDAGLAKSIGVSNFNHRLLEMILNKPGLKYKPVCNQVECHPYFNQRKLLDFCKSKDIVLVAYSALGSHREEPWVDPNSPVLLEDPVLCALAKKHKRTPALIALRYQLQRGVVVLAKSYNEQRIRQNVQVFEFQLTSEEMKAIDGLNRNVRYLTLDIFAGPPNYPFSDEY

[4] = molecular target: T4, Aldo-keto reductase family 1 member C1 (Homo sapiens, UniProt Q04828); assay: Inhibition of human AKR1C1 using S-tetralol as substrate in presence of NADP by fluorescence method
T4 sequence (Q04828 whole entry): T3 sequence (P52895 whole entry) with V38T, H47R, V54L, S87C, M151V, H170R, L172Q

[5] = molecular target: T3, Aldo-keto reductase family 1 member C2; assay: Inhibition of AKR1C2 (unknown origin) using 9,10-phenanthrenequinone as substrate
[6] = molecular target: T4, Aldo-keto reductase family 1 member C1; assay: Inhibition of AKR1C1 (unknown origin) using 9,10-phenanthrenequinone as substrate
[7] = molecular target: T3, Aldo-keto reductase family 1 member C2; assay: Inhibition of N-terminal His-tagged human AKR1C2 expressed in Escherichia coli BL21 ([…] Plus) competent cells using 9,10 -Phenanthrenequinone as substrate in presence of NADPH by fluorescence method
[8] = molecular target: Aldo-keto reductase family 1 member B10 (Homo sapiens, UniProt O60218); assay: Inhibition of N-terminal His-tagged human AKR1B10 expressed in Escherichia coli BL21 ([…] Plus) competent cells using […] as substrate in presence of NADPH by fluorescence method
Chain of Aldo-keto reductase family 1 member B10 (O60218 whole entry): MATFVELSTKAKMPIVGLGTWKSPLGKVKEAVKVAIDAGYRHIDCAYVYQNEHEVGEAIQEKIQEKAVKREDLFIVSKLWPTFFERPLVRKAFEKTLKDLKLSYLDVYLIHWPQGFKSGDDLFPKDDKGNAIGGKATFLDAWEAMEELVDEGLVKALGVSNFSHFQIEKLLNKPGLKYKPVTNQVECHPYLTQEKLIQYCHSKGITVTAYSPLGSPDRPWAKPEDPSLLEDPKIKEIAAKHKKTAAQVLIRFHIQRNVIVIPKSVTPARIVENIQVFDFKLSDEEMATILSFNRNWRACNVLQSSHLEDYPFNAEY

[9] = molecular target: T2, Aldo-keto reductase family 1 member C4; assay: Inhibition of N-terminal His-tagged human AKR1C4 expressed in Escherichia coli BL21 ([…] Plus) competent cells using 9,10 -Phenanthrenequinone as substrate in presence of NADPH by fluorescence method
[10] = molecular target: Aldo-keto reductase family 1 member B1 (Homo sapiens, UniProt P15121); assay: Inhibition of N-terminal His-tagged human AKR1B1 expressed in Escherichia coli BL21 ([…] Plus) competent cells using D,L-glyceraldehyde as substrate in presence of NADPH by fluorescence method
[11] = molecular target: T1, Aldo-keto reductase family 1 member C3; assay: Inhibition of N-terminal His-tagged human AKR1C3 expressed in Escherichia coli BL21 ([…] Plus) competent cells using 9,10 -Phenanthrenequinone as substrate in presence of NADPH by fluorescence method
[12] = molecular target: T5, Aldo-keto reductase family 1 member A1 (Homo sapiens, UniProt P14550); assay: Inhibition of N-terminal His-tagged human AKR1A1 expressed in Escherichia coli BL21 ([…] Plus) competent cells using D,L-glyceraldehyde as substrate in presence of NADPH by fluorescence method
T5 sequence (P14550 whole entry): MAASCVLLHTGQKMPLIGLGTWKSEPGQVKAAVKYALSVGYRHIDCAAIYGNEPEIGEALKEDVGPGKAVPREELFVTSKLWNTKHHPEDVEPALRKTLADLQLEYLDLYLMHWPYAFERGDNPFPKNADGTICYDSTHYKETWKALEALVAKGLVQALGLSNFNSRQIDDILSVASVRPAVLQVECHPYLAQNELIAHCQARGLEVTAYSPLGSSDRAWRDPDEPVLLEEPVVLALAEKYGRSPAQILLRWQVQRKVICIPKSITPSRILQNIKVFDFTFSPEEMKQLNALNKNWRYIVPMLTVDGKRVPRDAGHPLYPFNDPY

[13] = molecular target: T4, Aldo-keto reductase family 1 member C1; assay: Inhibition of N-terminal His-tagged human AKR1C1 expressed in Escherichia coli BL21 ([…] Plus) competent cells using 9,10 -Phenanthrenequinone as substrate in presence of NADPH by fluorescence method
Androgen receptor [14] = molecular target: T6, Androgen receptor (Homo sapiens, UniProt P10275); assay: Antagonist activity at androgen receptor (unknown origin) expressed in human HeLa cells harboring AR3A-PSA-(ARE)4-Luc13 in presence of DHT by BrightGlo luciferase assay; type: cell-based
T6 sequence (P10275 whole entry): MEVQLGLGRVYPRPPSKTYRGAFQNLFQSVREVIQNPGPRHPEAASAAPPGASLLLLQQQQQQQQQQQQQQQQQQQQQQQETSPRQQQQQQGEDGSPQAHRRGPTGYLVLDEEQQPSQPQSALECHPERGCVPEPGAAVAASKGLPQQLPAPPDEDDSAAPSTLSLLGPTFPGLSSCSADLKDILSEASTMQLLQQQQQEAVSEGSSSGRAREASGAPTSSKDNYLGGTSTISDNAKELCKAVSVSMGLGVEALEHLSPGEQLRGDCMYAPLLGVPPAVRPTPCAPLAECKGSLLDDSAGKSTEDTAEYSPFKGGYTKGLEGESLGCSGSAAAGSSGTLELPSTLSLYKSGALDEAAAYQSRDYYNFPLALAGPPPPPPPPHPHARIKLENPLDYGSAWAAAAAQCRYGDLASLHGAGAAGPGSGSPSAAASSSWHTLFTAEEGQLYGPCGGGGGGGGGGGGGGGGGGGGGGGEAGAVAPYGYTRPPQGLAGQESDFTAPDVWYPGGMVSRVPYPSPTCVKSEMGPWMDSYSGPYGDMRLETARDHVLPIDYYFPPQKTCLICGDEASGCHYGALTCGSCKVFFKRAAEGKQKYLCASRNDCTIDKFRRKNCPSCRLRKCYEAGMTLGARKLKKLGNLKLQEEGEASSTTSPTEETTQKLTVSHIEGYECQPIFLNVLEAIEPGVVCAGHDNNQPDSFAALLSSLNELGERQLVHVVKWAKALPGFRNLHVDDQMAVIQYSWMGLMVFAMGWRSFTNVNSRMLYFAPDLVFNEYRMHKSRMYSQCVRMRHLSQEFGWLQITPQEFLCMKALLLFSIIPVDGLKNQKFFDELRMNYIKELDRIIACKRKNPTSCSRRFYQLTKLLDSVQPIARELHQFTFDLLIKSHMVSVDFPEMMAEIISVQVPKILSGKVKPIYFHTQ

[15] = molecular target: T1, Aldo-keto reductase family 1 member C3; assay: Inhibition of human AKR1C3 expressed in Escherichia coli incubated for 30 mins in presence of NADPH regeneration system by UHPLC analysis; conditions: for Ki: read-out: Ki
[16] = molecular target: T1, Aldo-keto reductase family 1 member C3; assay: Inhibition of human AKR1C3 expressed in Escherichia coli BL21(DE3) pLysS cells using 9,10-phenanthrenequinone as substrate
[17] = molecular target: T1, Aldo-keto reductase family 1 member C3; assay: Inhibition of human AKR1C3 expressed in Escherichia coli BL21(DE3) pLysS cells using S-tetralol as substrate
Androgen receptor [18] = molecular target: T6, Androgen receptor; assay: Displacement of [3H]-R1881 from androgen receptor (unknown origin) expressed in human HeLa cells harboring AR3A-PSA-(ARE)4-Luc13 incubated for 2 hrs by scintillation counting; type: cell-based
[19] = molecular target: T4, Aldo-keto reductase family 1 member C1; assay: Inhibition of N-terminal His-tagged human AKR1C1 expressed in Escherichia coli BL21 ([…] Plus) competent cells using 9,10-phenanthrenequinone as substrate in presence of NADPH
[20] = molecular target: T1, Aldo-keto reductase family 1 member C3; assay: Inhibition of N-terminal His-tagged human AKR1C3 expressed in Escherichia coli BL21([…] Plus) competent cells using 9,10-phenanthrenequinone as substrate in presence of NADPH
[21] = molecular target: T3, Aldo-keto reductase family 1 member C2; assay: Inhibition of N-terminal His-tagged human AKR1C2 expressed in Escherichia coli BL21 ([…] Plus) competent cells using 9,10-phenanthrenequinone as substrate in presence of NADPH

SMILES: O=C(O)c1cccc(Nc2ccc([N+](=O)[O-])c3c([N+](=O)[O-])cccc23)c1
IC50 [1]: 0.053 µM
IC50 [2]: 5.34 µM
IC50 [3]: 15.6 µM
IC50 [4]: 15.4 µM

IC50 [5]: 50 µM
IC50 [6]: 96 µM
SMILES: COc1ccc2c(c1)c(CC(=O)O)c(C)n2C(=O)c1ccc(Cl)cc1 [INDOMETHACIN]

IC50 [1]: 0.082 µM
IC50 [2]: 17.7 µM
IC50 [3]: 19.5 µM
IC50 [4]: 50 µM
SMILES: CC(=O)c1ccc(Nc2cccc(C(=O)O)c2)c2ccccc12

IC50 [7]: 25.8 µM
IC50 [8]: 0.39 µM
IC50 [9]: 8.25 µM
IC50 [10]: 3.56 µM
IC50 [11]: 3.71 µM
IC50 [12]: > 50 µM
IC50 [13]: 29.2 µM
SMILES: O=C(/C=C/c1ccc(O)c(O)c1)OCCc1ccccc1 [CAFFEIC ACID PHENETHYL ESTER]

IC50 (Androgen receptor [14]): 300 µM
SMILES: COc1ccc2[nH]c(C(=O)N3CCC(CC(C)(C)O)CC3)cc2c1 [ASP-9521]

SMILES: CC(C)C(CO)Nc1nc(Nc2cccc(Cl)c2)c2ncn(C(C)C)c2n1 (stereo not given)
IC50 [15]: 6.58 µM
Ki [15]: 5.5 µM

IC50 [16]: 0.69 µM
IC50 [17]: 0.69 µM
SMILES: CCCCC/C=C\C/C=C\CCCCCCCC(=O)O [LINOLEIC ACID]

SMILES: CCC(CO)Nc1nc(NCc2ccccc2)c2ncn(C(C)C)c2n1 (stereo not drawn) [(RS)-ROSCOVITINE]
IC50 [15]: 2.15 µM
Ki [15]: 1.4 µM

SMILES: CCCCC/C=C/C/C=C/C/C=C/C/C=C/CCCC(=O)O
IC50 [16]: 0.84 µM
IC50 [17]: 0.69 µM

IC50 (Androgen receptor [14]): 2.1 µM
IC50 (Androgen receptor [18]): 80 µM
SMILES: Oc1ccc2c(O)ncc(-c3cc(F)c(F)c(F)c3)c2c1

SMILES: CCCCCCCCOC(=O)c1cc(O)c(O)c(O)c1 [OCTYL_GALLATE]
IC50 [7]: 9.28 µM
IC50 [8]: > 100 µM
IC50 [9]: 4.04 µM
IC50 [10]: > 100 µM
IC50 [11]: 2.56 µM
IC50 [12]: > 100 µM
IC50 [13]: 5.48 µM

IC50 [19]: 6.86 µM
IC50 [20]: 0.85 µM
IC50 [21]: > 50 µM
SMILES: CCC1=C(C)CN(C(=O)NCCc2ccc(S(=O)(=O)NC(=O)N[C@H]3CC[C@H](C)CC3)cc2)C1=O [GLIMEPIRIDE]

IC50 [1]: 0.086 µM
IC50 [2]: 30.6 µM
IC50 [3]: 24.7 µM
IC50 [4]: 41.3 µM
SMILES: O=C(O)c1cccc(Nc2ccc([N+](=O)[O-])c3ccccc23)c1

IC50 [19]: > 300 µM
IC50 [20]: 19.6 µM
IC50 [21]: > 1000 µM
SMILES: Cc1ccc(S(=O)(=O)NC(=O)NN2CC3CCCC3C2)cc1 (stereo not given) [GLICLAZIDE]

Source: ChEMBL document CHEMBL4665678, “Overview of AKR1C3: Inhibitor Achievements and Disease Insights” (J Med Chem, 2020)
